Legend:
[1] = system: Lambsquarter (Chenopodium album); test: Pre-emergent herbicidal test, Lambsquarter; assay type: in vivo; details: 504 h, pre-emergence, 33 micrograms/cm^2, 3 weeks, read-out: Herbicidal Activity Pre-Emergence % Control L'Qtr.
Description: (§1) An acetone solution of the test compound was prepared by mixing 750 mg of the compound, 220 mg of a nonionic surfactant and 25 ml of acetone. This solution was added to approximately 125 ml of water containing 156 mg of surfactant.
(§2) Seeds of the test vegetation were planted in a pot of […] and the test solution was sprayed uniformly onto the soil surface at a dose of 33 micrograms/cm^2. The pot was watered and placed in a greenhouse. […] At the end of this period, the herbicidal effectiveness of the compound was rated based on the physiological observations. A 0-to-100 scale was used, 0 representing no phytotoxicity, 100 representing complete kill.

[2] = system: Watergrass (Ethinochloa crusgalli); test: Pre-emergent herbicidal test, Watergrass; assay type: in vivo; details: 504 h; pre-emergence; 33 micrograms/cm^2; 3 weeks
Description: as §1, §2

[3] = system: Lambsquarter (Chenopodium album); test: Post-emergent herbicidal test, Lambsquarter; assay type: in vivo; details: 504 h, post-emergence, 33 micrograms/cm^2, 3 weeks, read-out: Herbicidal Activity Post-Emergence % Control L'Qtr.
Botrytis Cineria = test: Mycelial inhibition, Botrytis; assay type: cell-based; details: 24 hours, relative to standard DIFOLATAN
Description: (§3) A number of the compounds of the present invention were evaluated for in-vitro fungicidal effectiveness by means of a mycelial inhibition test. This test is designed to measure the fungitoxic activity of fungicidal chemicals in terms of their degree of inhibition of mycelium growth. Each compound to be tested was dissolved in acetone to 500 ppm concentration. Paper strips were infused with the particular mycelium growth by covering the paper with a potato dextrose broth culture of mycelial suspension. The papers were then placed on potato dextrose agar plates and sprayed by means of a microsprayer with the fungicidal solution. The treated paper strips were incubated at 25° C. and the data is taken after 24 hours. Fungicidal activities are measured by a zone of inhibited mycelial growth from the center of the paper strip. The effectiveness of the compounds tested for fungicidal activity is reported in Table IIa for those compounds which were effective in inhibiting mycelial growth. The activity is reported in terms of [formula]

Lemna minor = test: Aquatic weeds control, Lemna; assay type: in vivo; details: 7 to 10 days, read-out: Algicidal Activity % Control Lemna
Description: (§4) Representative compounds of the invention were tested as aquatic herbicides and algicides by the following method. The weed test species were Lemna minor, Elodea canadensis and the algae used was Spirulina maxima.
(§5) An acetone solution of the test compound and a small amount of an alkylarylpolyoxyethylene glycol-containing surfactant was prepared. This solution was mixed with a nutrient solution in quantity sufficient to give a concentration of 2 ppm. Eight oz. plastic cups were filled with 150 ml of this solution. A sample of the test, Lemna and Elodea, was added together to each cup. Forty ml of Spirulina culture with the 2 ppm treatment was placed in 11/2 oz plastic cups (#4 glass vials used after June 9, 1980). The containers were then placed in an illuminated environment maintained at a temperature of about 20° C. for incubation. The containers were observed periodically for growth (as compared to an untreated check). The effectiveness of the test compound was determined based on a final observation of growth after 7 to 10 days. The results of the test on a 0-to-100 basis--0 indicating no effectiveness and 100 indicating complete effectiveness--are reported in Table IV.

Plasmopara viticola = test: Grape Downy Mildew control, detached grape leaves; assay type: in vivo; details: in Vitis vinifera, Vitis vinifera Emperor detached leaves, read-out: % Control Grape D.M.
Description: The compounds of the invention were tested for the control of the grape downy mildew organism Plasmopara viticola. Detached leaves, between 70 and 85 mm in diameter, of 7-week old Vitis vinifera cultivar Emperor grape seedlings were used as hosts. The leaves were sprayed with a 250 ppm solution of the test compound in acetone. The sprayed leaves were dried, inoculated with a spore suspension of the organism, placed in a humid environmental chamber and incubated at 66° to 68° F. and about 100% relative humidity. After incubation for two days, the plants were then held in a greenhouse seven to nine days; then the amount of disease control was determined. The percent disease control provided by a given gest compound was based on the percent disease reduction relative to untreated check plants.

[4] = system: Mustard (Brassica arvensis); test: Pre-emergent herbicidal test, Mustard; assay type: in vivo; details: 504 h, pre-emergence, 33 micrograms/cm^2, 3 weeks
Description: as §1, §2

Elodea canadensis = test: Aquatic weeds control, Elodea; assay type: in vivo; details: 7 to 10 days, read-out: Algicidal Activity % Control Elodea
Description: as §4, §5

Pythium Ultimum = test: Mycelial inhibition, Pythium; assay type: cell-based; details: Globisporangium ultimum, 24 hours, relative to standard DIFOLATAN
Description: as §3

[5] = system: Crabgrass (Digitaria sanguinalis); test: Pre-emergent herbicidal test, Crabgrass; assay type: in vivo; details: 504 h, pre-emergence, 33 micrograms/cm^2, 3 weeks
Description: as §1, §2

Septoria apii = assay type: in vivo; details: 250 ppm; celery (Utah) plants
Piricularia oryzae = assay type: in vivo; details: 625 ppm; rice seedlings Calrose M-9

Structure (SMILES)	pest or weed control at 33 µg/cm2 [1] [%]	pest or weed control at 33 µg/cm2 [2] [%]	pest or weed control at 33 µg/cm2 [3] [%]	inhibition at 500 ppm (Botrytis Cineria) [%]	activity at 2 ppm (Lemna minor) [%]	pest or weed control at 250 ppm (Plasmopara viticola) [%]	pest or weed control at 33 µg/cm2 [4] [%]	activity at 2 ppm (Elodea canadensis) [%]	inhibition at 500 ppm (Pythium Ultimum) [%]	pest or weed control at 33 µg/cm2 [5] [%]	% Control Cel. L. Bl. (Septoria apii) [%]	% Control Rice Blast (Piricularia oryzae) [%]
C=C1SC(SCSC#N)=NC1(C)C [Compound 7, 2-Thiocyanomethylthio-4,4-dimethyl-5-methylenethiazoline]	60	0	55	82	90	50	0	85	55	0	–	–
C=C1SC(SCSC#N)=NC1(CC)CC [Compound 6, 2-thiocyanomethylthio-4,4-diethyl-5-methylenethiazoline]	73	0	55	30	0	0	58	0	31	0	0	–
C=C1SC(SCSC#N)=NC12CCCCC2 [Compound 8]	0	0	40	26	60	100	0	80	0	0	–	–
CC1(C)N=C(SCSC#N)SC1=C(Cl)Cl [Compound 2, 2-thiocyanomethylthio-4,4-dimethyl-5-dichloromethylenethiazoline]	0	0	40	32	50	88	0	70	–	0	35	–
CCC1(CC)N=C(SCSC#N)SC1=CBr [Compound 5, 2-thiocyanomethylthio-4,4-diethyl-5-bromo-methylenethiazoline]	0	0	33	0	0	100	0	55	0	0	96	90
CC1(C)N=C(SCSC#N)SC1=CSc1ccc(Cl)cc1 [Compound 1, 2-thiocyanomethylthio-4,4-dimethyl-5-(4-chlorophenylthio)methylenethiazoline]	0	0	0	0	0	100	0	0	–	0	70	–

— patent US4365989A, “2-Thiocyanomethylthio-4,4-dialkyl-5-substituted-thiazoline fungicides” (Chevron Research Company, priority 1982, dated 1982)
